Reference: the supplement of paper PMC10307832

How the values were obtained:
Assay in all cases: relative viability (nuclei count vs DMSO), 5 days (fraction); higher = more cells survive
[1] = compound: NC(=O)c1ccc(N(C(N)=O)c2c(F)cccc2F)nc1-c1ccc(F)cc1F [VX-702] + CC(=O)c1c(C)c2cnc(Nc3ccc(N4CCNCC4)cn3)nc2n(C2CCCC2)c1=O [Palbociclib] (partner 0.5 µM)
Procedure, shortened: (§1)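 A single step with final 0.05% Triton X-100, 1% formaldehyde and 1 ug/ml Hoechst fixed the cells and stained nuclei 5 days after treatment. Lung cancer cell lines in 1536-well plates had been treated by pin tool the day after seeding with one drug alone or a fixed anchor-drug dose plus five library-drug doses (not always all listed) in √10 steps, and nuclei were counted on 4× images. Relative viability is the ratio of nuclei in treated wells to nuclei in vehicle wells, taken as the median of duplicate plates.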

[2] = compound: CC(C)(C)c1nc(-c2cccc(NS(=O)(=O)c3c(F)cccc3F)c2F)c(-c2ccnc(N)n2)s1 [Dabrafenib] + CC(=O)c1c(C)c2cnc(Nc3ccc(N4CCNCC4)cn3)nc2n(C2CCCC2)c1=O [Palbociclib] (partner 0.5 µM)
Procedure, shortened: as §1

[3] = compound: NC(=O)c1ccc(N(C(N)=O)c2c(F)cccc2F)nc1-c1ccc(F)cc1F [VX-702] + O=C(c1cc(Cc2n[nH]c(=O)c3ccccc23)ccc1F)N1CCN(C(=O)C2CC2)CC1 [Olaparib] (partner 8 µM)
Procedure, shortened: as §1

[4] = compound: NC(=O)c1ccc(N(C(N)=O)c2c(F)cccc2F)nc1-c1ccc(F)cc1F [VX-702] + CS(=O)(=O)N1CCN(Cc2cc3nc(-c4cccc5[nH]ncc45)nc(N4CCOCC4)c3s2)CC1 [Pictilisib] (partner 1 µM)
Procedure, shortened: as §1

Cell Line | relative viability ([1]; first compound 0.02 µM) | relative viability ([1]; first compound 0.6325 µM) | relative viability ([1]; first compound 2 µM) | relative viability ([2]; first compound 0.009487 µM) | relative viability ([2]; first compound 0.09487 µM) | relative viability ([2]; first compound 0.3 µM) | relative viability ([3]; first compound 0.02 µM) | relative viability ([3]; first compound 0.6325 µM) | relative viability ([3]; first compound 2 µM) | relative viability ([4]; first compound 0.02 µM) | relative viability ([4]; first compound 0.2 µM) | relative viability ([4]; first compound 0.6325 µM) | relative viability ([4]; first compound 2 µM) | relative viability ([1]; first compound 0.2 µM) | relative viability ([2]; first compound 0.003 µM) | relative viability ([2]; first compound 0.03 µM) | relative viability ([3]; first compound 0.2 µM)
NCI-H1793 | 0.294 | 0.314 | 0.269 | 0.411 | 0.289 | 0.291 | 0.939 | 0.858 | 1.01 | 0.311 | 0.262 | 0.389 | 0.252 |  |  |  | 
LU99A | 0.407 | 0.389 | 0.34 | 0.387 | 0.39 | 0.393 | 0.265 | 0.255 | 0.228 | 0.316 | 0.297 | 0.292 | 0.318 | 0.387 | 0.477 | 0.388 | 0.233
BEN | 0.51 | 0.413 | 0.514 | 0.477 | 0.426 | 0.448 | 0.781 | 0.991 | 1.06 | 0.558 | 0.526 | 0.491 | 0.608 | 0.467 |  |  | 0.89
EKVX | 0.355 | 0.343 | 0.301 | 0.41 | 0.383 | 0.445 | 0.726 | 0.906 | 0.974 | 0.408 | 0.351 | 0.35 | 0.358 | 0.38 |  | 0.387 | 0.869
SK-LU-1 | 0.38 | 0.382 | 0.395 | 0.395 | 0.365 | 0.371 | 0.504 | 0.526 | 0.567 | 0.647 | 0.501 | 0.563 | 0.645 | 0.355 |  | 0.238 | 0.435
COR-L 105 | 0.38 | 0.432 | 0.38 | 0.396 | 0.417 | 0.367 | 0.633 | 0.768 | 0.859 | 0.449 | 0.386 | 0.409 | 0.366 | 0.409 | 0.414 | 0.398 | 0.658
NCI-H2170 | 0.355 | 0.42 | 0.369 | 0.377 | 0.377 | 0.397 | 0.611 | 0.631 | 0.676 | 0.339 | 0.317 | 0.324 | 0.283 | 0.374 | 0.429 | 0.383 | 0.546
SW 1573 | 0.422 | 0.32 | 0.318 | 0.484 | 0.349 | 0.392 | 0.495 | 0.438 | 0.448 | 0.439 | 0.388 | 0.361 | 0.482 | 0.395 | 0.431 | 0.363 | 0.445
NCI-H2087 | 0.203 | 0.214 | 0.225 | 0.218 | 0.235 | 0.208 | 0.552 | 0.669 | 0.709 | 0.861 | 0.729 | 0.881 | 0.783 | 0.228 |  | 0.246 | 0.58
NCI-H358 | 0.127 | 0.134 | 0.142 | 0.149 | 0.153 | 0.122 | 0.628 | 0.561 | 0.634 | 0.352 | 0.343 | 0.301 | 0.323 | 0.141 | 0.111 | 0.12 | 0.526
NCI-H1975 | 0.497 | 0.518 | 0.624 | 0.581 | 0.456 | 0.384 | 0.792 | 0.809 | 1.1 | 0.27 | 0.283 | 0.384 | 0.316 | 0.446 | 0.437 | 0.553 | 0.746
HCC-15 | 0.732 | 0.724 | 0.491 | 0.779 | 0.729 | 0.78 | 0.752 | 0.692 | 0.719 | 0.731 | 0.644 | 0.643 | 0.749 | 0.639 | 0.714 | 0.769 | 0.712
HOP-62 | 0.487 | 0.451 | 0.551 | 0.423 | 0.471 | 0.498 | 0.478 | 0.553 | 0.65 | 0.852 | 0.652 | 0.597 | 0.683 | 0.479 | 0.466 | 0.433 | 0.611
NCI-H1792 | 0.614 | 0.653 | 0.546 | 0.718 | 0.63 | 0.66 | 0.396 | 0.356 | 0.444 | 0.228 | 0.222 | 0.22 | 0.247 | 0.587 |  | 0.66 | 0.434
NCI-H2228 | 0.604 | 0.676 | 1.07 | 0.801 | 0.668 | 0.7 | 0.866 | 0.754 | 0.864 | 0.364 | 0.431 | 0.343 | 0.507 | 0.763 | 0.502 | 0.753 | 0.794
EMC-BAC-2 | 0.5 | 0.501 | 0.481 | 0.497 | 0.427 | 0.418 | 0.526 | 0.482 | 0.441 | 0.547 | 0.555 | 0.508 | 0.432 | 0.489 |  | 0.448 | 0.483
NCI-H1355 | 0.411 | 0.441 | 0.404 | 0.458 | 0.409 | 0.47 | 0.752 | 0.785 | 0.876 | 0.514 | 0.439 | 0.338 | 0.46 | 0.424 |  | 0.373 | 0.729
NCI-H3122 | 0.243 | 0.184 | 0.215 | 0.207 | 0.167 | 0.181 | 0.636 | 0.66 | 0.555 | 0.572 | 0.59 | 0.578 | 0.589 | 0.19 | 0.186 | 0.2 | 0.61
